The numbers were not newly measured in US20090306027A1 (priority 2006, published 2009), which cites them from elsewhere.

Where a name gives a salt, the structure may show the parent alone.

With `O=[N+]([O-])O[C@H]1CO[C@H]2[C@@H]1OC[C@H]2O[N+](=O)[O-]` [Diluted isosorbide dinitrate, 1,4,3,6-dianhydro-D-glucitol-2,5-dinitrate], the solubility in water result is on record as “sparingly soluble”. In addition, the “solubility in organic solvents” value (organic solvents such as ethanol, ether and chloroform) was “freely soluble”.

`NNc1nncc2ccccc12` [Hydralazine hydrochloride, hydralazine hydrochloride]: the solubility in water entry is on record as “soluble”. Moreover, the solubility in alcohol result (alcohol) is reported as “slightly soluble”. Further, the solubility in ether entry (ether) is given as “very slightly soluble”.
